Measurements reported in patent US20170119640A1, “Methods of Improving Glucose Tolerance, Hair Regrowth, and Bio-Availability” (priority 2015, published 2017).

Tests used:
[1] = test system: female Albino Wistar rats; assay: glucose tolerance test; type: in vivo, rat; details: six month old female Albino Wistar rats; 25, 50, 75 mg/kg body wt daily for four months; 6 h fast, 2 g/kg intraperitoneally, blood at 0-120 min; p<0.01 ResArgin, p<0.05 resveratrol
Description: (§1) To determine the efficacy of resveratrol-arginine conjugate, six month old female Albino Wistar rats were divided into seven groups (six rats per group) and given the following daily treatment for four months:
(§2) Group 2: 25 mg ResArgin/kg body wt; Group 3: 50 mg ResArgin/kg body wt; Group 4: 75 mg ResArgin/kg body wt; Group 5: 25 mg Resveratrol/kg body wt; Group 6: 50 mg Resveratrol/kg body wt;
Group 7: 75 mg Resveratrol/kg body wt. In one embodiment, glucose tolerance levels were tested via a glucose tolerance test and analysis was performed. Compared to the Control group, glucose tolerance was improved in the ResArgin and resveratrol groups (p<0.01 and p<0.05 respectively) over the experimental period.
In one embodiment, glucose tolerance tests were performed after having the rats fast for 6 hours and injecting 2 g/kg body weight intraperitoneally. Blood was then collected from the tail vein at 0, 15, 30, 60 and 120 minutes after injection.

[2] = test system: female Albino Wistar rats; assay: hair regrowth assay; type: in vivo, rat; details: six month old female Albino Wistar rats; 25, 50, 75 mg/kg body wt daily for four months; dorsal hair plucked from 1.5 cm×1.5 cm, scored two weeks later from digital photographs
Description: as §1, §2
In another embodiment, hair regrowth assay was done and quantified. Compared to the Control group, hair regrowth was improved in the ResArgin and resveratrol groups over the experimental period.
In the hair regrowth assay, dorsal hair was removed by plucking from a square of approximately 1.5 cm×1.5 cm. Hair growth and re-growth was scored two weeks later on the basis of digital photographs.

## Oc1ccc(C=Cc2cc(O)cc(O)c2)cc1 [resveratrol]
[1]
  glucose tolerance compared to the Control group: improved
[2]
  hair regrowth compared to the Control group: improved
